Reference: a compilation of properties of binary mixtures (doi:10.1016/j.jct.2020.106093)

Assay: xn = mol fraction of the nth substance listed
Conditions: 100.9 kPa

`CC(=O)[O-].CC[NH2+]CC` + O gave a viscosity (313.15 K, x1 = 0.351) of 19.49 mPa·s, a speed of sound (313.15 K, x1 = 0.708) of 1494 m/s and a viscosity (313.15 K, x1 = 0.714) of 33.5 mPa·s. For the same compound, the speed of sound (313.15 K, x1 = 0.835) was 1461 m/s, the viscosity (313.15 K, x1 = 0.84) was 34 mPa·s and the viscosity (315.65 K, x1 = 0.015) was 0.904 mPa·s. It also gave a viscosity (315.65 K, x1 = 0.055) of 1.89 mPa·s, a viscosity (315.65 K, x1 = 0.24) of 11.59 mPa·s and a viscosity (315.65 K, x1 = 0.351) of 17.57 mPa·s. The viscosity (315.65 K, x1 = 0.549) was 26.3 mPa·s, the viscosity (315.65 K, x1 = 0.84) was 30.6 mPa·s and the electrical conductivity (318.15 K, x1 = 0.015) was 4.74 S/m. The speed of sound (318.15 K, x1 = 0.015) was 1608 m/s, the viscosity (318.15 K, x1 = 0.015) was 0.862 mPa·s and the electrical conductivity (318.15 K, x1 = 0.054) was 8.13 S/m. The speed of sound (318.15 K, x1 = 0.055) was 1732 m/s, the viscosity (318.15 K, x1 = 0.055) was 1.774 mPa·s and the speed of sound (318.15 K, x1 = 0.119) was 1782 m/s. It also gave a viscosity (318.15 K, x1 = 0.119) of 3.94 mPa·s, an electrical conductivity (318.15 K, x1 = 0.12) of 5.91 S/m and an electrical conductivity (318.15 K, x1 = 0.168) of 4.05 S/m. The speed of sound (318.15 K, x1 = 0.168) was 1758 m/s, the viscosity (318.15 K, x1 = 0.168) was 6.11 mPa·s and the electrical conductivity (318.15 K, x1 = 0.24) was 2.51 S/m. The speed of sound (318.15 K, x1 = 0.24) was 1699 m/s, the viscosity (318.15 K, x1 = 0.24) was 10.54 mPa·s and the speed of sound (318.15 K, x1 = 0.35) was 1636 m/s. It also gave a viscosity (318.15 K, x1 = 0.351) of 15.87 mPa·s, a speed of sound (318.15 K, x1 = 0.549) of 1526 m/s and a viscosity (318.15 K, x1 = 0.549) of 23.7 mPa·s. For the same compound, the electrical conductivity (318.15 K, x1 = 0.55) was 0.767 S/m, the speed of sound (318.15 K, x1 = 0.708) was 1479 m/s and the electrical conductivity (318.15 K, x1 = 0.714) was 0.609 S/m. It also gave a viscosity (318.15 K, x1 = 0.714) of 27.2 mPa·s, a speed of sound (318.15 K, x1 = 0.835) of 1446 m/s and an electrical conductivity (318.15 K, x1 = 0.838) of 0.498 S/m. For the same compound, the viscosity (318.15 K, x1 = 0.84) was 27.6 mPa·s, the electrical conductivity (318.15 K, x1 = 0.945) was 0.476 S/m and the viscosity (320.65 K, x1 = 0.015) was 0.826 mPa·s. The viscosity (320.65 K, x1 = 0.055) was 1.67 mPa·s, the viscosity (320.65 K, x1 = 0.119) was 3.65 mPa·s and the viscosity (320.65 K, x1 = 0.168) was 5.63 mPa·s. It also gave a viscosity (320.65 K, x1 = 0.24) of 9.62 mPa·s, a viscosity (320.65 K, x1 = 0.351) of 14.41 mPa·s and a viscosity (320.65 K, x1 = 0.549) of 21.5 mPa·s. For the same compound, the viscosity (320.65 K, x1 = 0.714) was 24.6 mPa·s, the viscosity (320.65 K, x1 = 0.84) was 25 mPa·s and the speed of sound (323.15 K, x1 = 0.015) was 1610 m/s. For the same compound, the viscosity (323.15 K, x1 = 0.015) was 0.795 mPa·s, the speed of sound (323.15 K, x1 = 0.055) was 1725 m/s and the viscosity (323.15 K, x1 = 0.055) was 1.576 mPa·s. For the same compound, the speed of sound (323.15 K, x1 = 0.119) was 1768 m/s, the viscosity (323.15 K, x1 = 0.119) was 3.4 mPa·s and the speed of sound (323.15 K, x1 = 0.168) was 1744 m/s. For the same compound, the viscosity (323.15 K, x1 = 0.168) was 5.21 mPa·s, the speed of sound (323.15 K, x1 = 0.24) was 1685 m/s and the viscosity (323.15 K, x1 = 0.24) was 8.81 mPa·s. The speed of sound (323.15 K, x1 = 0.35) was 1622 m/s, the viscosity (323.15 K, x1 = 0.351) was 13.12 mPa·s and the speed of sound (323.15 K, x1 = 0.549) was 1512 m/s. It also gave a viscosity (323.15 K, x1 = 0.549) of 19.55 mPa·s, a speed of sound (323.15 K, x1 = 0.708) of 1464 m/s and a viscosity (323.15 K, x1 = 0.714) of 22.3 mPa·s. For the same compound, the speed of sound (323.15 K, x1 = 0.835) was 1430 m/s, the viscosity (323.15 K, x1 = 0.84) was 22.7 mPa·s and the viscosity (325.65 K, x1 = 0.015) was 0.757 mPa·s. For the same compound, the viscosity (325.65 K, x1 = 0.055) was 1.489 mPa·s, the viscosity (325.65 K, x1 = 0.119) was 3.17 mPa·s and the viscosity (325.65 K, x1 = 0.168) was 4.82 mPa·s. For the same compound, the viscosity (325.65 K, x1 = 0.24) was 8.09 mPa·s, the viscosity (325.65 K, x1 = 0.351) was 11.97 mPa·s and the viscosity (325.65 K, x1 = 0.549) was 17.76 mPa·s. For the same compound, the viscosity (325.65 K, x1 = 0.714) was 20.3 mPa·s, the viscosity (325.65 K, x1 = 0.84) was 20.6 mPa·s and the viscosity (328.15 K, x1 = 0.055) was 1.411 mPa·s. The viscosity (328.15 K, x1 = 0.119) was 2.97 mPa·s, the viscosity (328.15 K, x1 = 0.168) was 4.48 mPa·s and the viscosity (328.15 K, x1 = 0.24) was 7.45 mPa·s. It also gave a viscosity (328.15 K, x1 = 0.351) of 10.96 mPa·s, a viscosity (328.15 K, x1 = 0.714) of 18.53 mPa·s and a viscosity (328.15 K, x1 = 0.84) of 18.78 mPa·s. For the same compound, the viscosity (330.65 K, x1 = 0.24) was 6.88 mPa·s, the viscosity (330.65 K, x1 = 0.351) was 10.06 mPa·s and the viscosity (330.65 K, x1 = 0.549) was 14.78 mPa·s. The viscosity (330.65 K, x1 = 0.714) was 16.94 mPa·s, the viscosity (330.65 K, x1 = 0.84) was 17.14 mPa·s and the electrical conductivity (333.15 K, x1 = 0.015) was 7.37 S/m. For the same compound, the viscosity (333.15 K, x1 = 0.015) was 0.666 mPa·s, the electrical conductivity (333.15 K, x1 = 0.054) was 13.1 S/m and the viscosity (333.15 K, x1 = 0.055) was 1.273 mPa·s. The electrical conductivity (333.15 K, x1 = 0.12) was 8.77 S/m, the electrical conductivity (333.15 K, x1 = 0.168) was 5.75 S/m and the viscosity (333.15 K, x1 = 0.168) was 3.89 mPa·s. It also gave an electrical conductivity (333.15 K, x1 = 0.24) of 3.65 S/m, a viscosity (333.15 K, x1 = 0.24) of 6.37 mPa·s and an electrical conductivity (333.15 K, x1 = 0.353) of 2 S/m. For the same compound, the viscosity (333.15 K, x1 = 0.549) was 13.57 mPa·s, the electrical conductivity (333.15 K, x1 = 0.714) was 0.802 S/m and the viscosity (333.15 K, x1 = 0.714) was 15.52 mPa·s. For the same compound, the electrical conductivity (333.15 K, x1 = 0.838) was 0.666 S/m, the electrical conductivity (333.15 K, x1 = 0.945) was 0.65 S/m and the viscosity (335.65 K, x1 = 0.015) was 0.641 mPa·s. The viscosity (335.65 K, x1 = 0.055) was 1.213 mPa·s, the viscosity (335.65 K, x1 = 0.119) was 2.45 mPa·s and the viscosity (335.65 K, x1 = 0.24) was 5.91 mPa·s. The viscosity (335.65 K, x1 = 0.351) was 8.55 mPa·s, the viscosity (335.65 K, x1 = 0.549) was 12.48 mPa·s and the viscosity (335.65 K, x1 = 0.714) was 14.25 mPa·s. For the same compound, the viscosity (335.65 K, x1 = 0.84) was 14.39 mPa·s, the viscosity (338.15 K, x1 = 0.015) was 0.617 mPa·s and the viscosity (338.15 K, x1 = 0.055) was 1.159 mPa·s. It also gave a viscosity (338.15 K, x1 = 0.119) of 2.31 mPa·s, a viscosity (338.15 K, x1 = 0.168) of 3.4 mPa·s and a viscosity (338.15 K, x1 = 0.24) of 5.49 mPa·s. The viscosity (338.15 K, x1 = 0.351) was 7.91 mPa·s, the viscosity (338.15 K, x1 = 0.549) was 11.5 mPa·s and the viscosity (338.15 K, x1 = 0.714) was 13.11 mPa·s. It also gave a viscosity (338.15 K, x1 = 0.84) of 13.23 mPa·s, a viscosity (340.65 K, x1 = 0.015) of 0.595 mPa·s and a viscosity (340.65 K, x1 = 0.055) of 1.108 mPa·s. For the same compound, the viscosity (340.65 K, x1 = 0.119) was 2.18 mPa·s, the viscosity (340.65 K, x1 = 0.24) was 5.12 mPa·s and the viscosity (340.65 K, x1 = 0.351) was 7.33 mPa·s. It also gave a viscosity (340.65 K, x1 = 0.549) of 10.62 mPa·s, a viscosity (340.65 K, x1 = 0.714) of 12.08 mPa·s and a viscosity (340.65 K, x1 = 0.84) of 12.19 mPa·s. It also gave a viscosity (343.15 K, x1 = 0.015) of 0.574 mPa·s, a viscosity (343.15 K, x1 = 0.119) of 2.06 mPa·s and a viscosity (343.15 K, x1 = 0.168) of 3 mPa·s. For the same compound, the viscosity (343.15 K, x1 = 0.24) was 4.78 mPa·s, the viscosity (343.15 K, x1 = 0.351) was 6.81 mPa·s and the viscosity (343.15 K, x1 = 0.549) was 9.84 mPa·s. The viscosity (343.15 K, x1 = 0.714) was 11.16 mPa·s, the viscosity (343.15 K, x1 = 0.84) was 11.24 mPa·s and the electrical conductivity (348.15 K, x1 = 0.007) was 3.01 S/m. For the same compound, the electrical conductivity (348.15 K, x1 = 0.015) was 10.1 S/m, the electrical conductivity (348.15 K, x1 = 0.054) was 16.6 S/m and the electrical conductivity (348.15 K, x1 = 0.12) was 10.6 S/m. The electrical conductivity (348.15 K, x1 = 0.168) was 7.47 S/m, the electrical conductivity (348.15 K, x1 = 0.24) was 4.92 S/m and the electrical conductivity (348.15 K, x1 = 0.945) was 1.09 S/m. The electrical conductivity (363.15 K, x1 = 0.007) was 3.4 S/m, the electrical conductivity (363.15 K, x1 = 0.015) was 12.9 S/m and the electrical conductivity (363.15 K, x1 = 0.054) was 17.4 S/m. For the same compound, the electrical conductivity (363.15 K, x1 = 0.12) was 11.6 S/m, the electrical conductivity (363.15 K, x1 = 0.24) was 5.47 S/m and the electrical conductivity (363.15 K, x1 = 0.353) was 3.65 S/m. For the same compound, the electrical conductivity (363.15 K, x1 = 0.55) was 2.24 S/m, the electrical conductivity (363.15 K, x1 = 0.714) was 1.67 S/m and the electrical conductivity (363.15 K, x1 = 0.838) was 1.32 S/m.
